Results as given in patent publication US20240247080A1, “GLP1/GIP/NPY2 RECEPTOR TRIPLE AGONISTS” (Boehringer Ingelheim International GmbH, priority 2022, published 2024).
Where two headings read alike, the source gives them in different places. Starred links: 1 amine or outer side, 2 acyl side, 3 side chain; linkers in the order of their positions; H or OH if unused. Non-standard residues stand in square brackets, D forms with d. Groups on a side chain read outwards from the residue. *: point of attachment. C20 diacid = O=C(O)CCCCCCCCCCCCCCCCCCC(=O)*; C18 diacid = O=C(O)CCCCCCCCCCCCCCCCC(=O)*; γGlu = O=C(O)[C@H](CCC(=O)[*:2])N[*:1]; εLys = N[C@@H](CCCCN[*:1])C(=O)[*:2]; β3hQ = NC(=O)CC[C@H](N)CC(=O)O; Tle = CC(C)(C)[C@H](N)C(=O)O; AEEA = NCCOCCOCC(=O)O; Aib = CC(C)(N)C(=O)O

Columns and labels:
Assay type in all cases: cell-based
Conditions in all cases: CreLuc reporter gene assay
[1] = target: T1, hGIPR (Homo sapiens, UniProt P48546); assay: hGIPR CreLuc reporter gene assay in 0.5% and 100% plasma
T1 construct: expressed in transfected cells; host or cells: CHO cells carrying a CRE-luciferase reporter gene
T1 sequence (P48546 22-466): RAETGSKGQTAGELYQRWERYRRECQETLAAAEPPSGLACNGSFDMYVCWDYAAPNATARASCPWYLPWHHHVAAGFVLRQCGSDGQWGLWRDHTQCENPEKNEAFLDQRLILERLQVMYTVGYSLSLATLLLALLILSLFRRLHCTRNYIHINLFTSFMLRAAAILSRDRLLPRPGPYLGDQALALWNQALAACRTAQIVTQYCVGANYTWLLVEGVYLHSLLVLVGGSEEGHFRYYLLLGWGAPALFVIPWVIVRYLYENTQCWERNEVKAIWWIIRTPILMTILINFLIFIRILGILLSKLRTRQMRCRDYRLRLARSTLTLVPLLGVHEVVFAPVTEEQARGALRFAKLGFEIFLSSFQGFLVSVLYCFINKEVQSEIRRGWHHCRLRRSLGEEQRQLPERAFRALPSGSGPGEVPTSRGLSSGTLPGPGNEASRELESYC
Procedure, shortened: (§1)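 Agonist EC50s came from 8-concentration curves over four decades, fitted by non-linear variable-slope regression of CRE-driven luciferase luminescence. Cells were exposed 4 h at 37 °C, in buffer with 0.5% human plasma or in 100% plasma; GIPR was expressed in CHO cells, GLP-1R and NPY2R in HEK cells.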

[2] = target: T2, hGLP1R (Homo sapiens, UniProt P43220); assay: hGLP1R CreLuc reporter gene assay in 0.5% and 100% plasma
T2 construct: expressed in transfected cells; host or cells: HEK-293 cells carrying a CRE-luciferase reporter gene
T2 sequence (P43220 24-463): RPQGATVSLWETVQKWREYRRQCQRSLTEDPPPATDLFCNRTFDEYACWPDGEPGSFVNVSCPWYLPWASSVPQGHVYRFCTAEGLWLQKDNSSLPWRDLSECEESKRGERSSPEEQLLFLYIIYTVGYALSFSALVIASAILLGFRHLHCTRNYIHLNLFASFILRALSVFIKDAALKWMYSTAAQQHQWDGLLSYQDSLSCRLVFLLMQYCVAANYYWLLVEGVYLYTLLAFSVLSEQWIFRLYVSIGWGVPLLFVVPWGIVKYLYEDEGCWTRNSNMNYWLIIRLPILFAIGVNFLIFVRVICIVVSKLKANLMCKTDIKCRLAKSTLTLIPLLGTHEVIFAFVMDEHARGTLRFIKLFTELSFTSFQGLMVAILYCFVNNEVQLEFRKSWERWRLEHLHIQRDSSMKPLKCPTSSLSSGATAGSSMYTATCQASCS
Procedure, shortened: as §1

[3] = target: T3, hNPY2R (Homo sapiens, UniProt P49146); assay: hNPY2R CreLuc reporter gene assay in 0.5% and 100% plasma
T3 construct: expressed in transfected cells; host or cells: HEK-293 cells carrying a CRE-luciferase reporter gene
T3 sequence (P49146 1-381): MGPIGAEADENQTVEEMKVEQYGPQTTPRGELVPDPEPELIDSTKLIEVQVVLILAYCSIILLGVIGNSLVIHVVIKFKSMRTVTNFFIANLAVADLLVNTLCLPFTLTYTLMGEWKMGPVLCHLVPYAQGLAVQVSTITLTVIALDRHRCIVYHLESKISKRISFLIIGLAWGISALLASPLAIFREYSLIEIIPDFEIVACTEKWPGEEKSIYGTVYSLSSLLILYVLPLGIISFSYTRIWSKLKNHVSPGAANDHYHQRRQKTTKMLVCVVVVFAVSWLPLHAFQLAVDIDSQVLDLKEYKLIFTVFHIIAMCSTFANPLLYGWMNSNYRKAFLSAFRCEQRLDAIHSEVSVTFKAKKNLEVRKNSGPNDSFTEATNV
Procedure, shortened: as §1

[4] = 0.5% human plasma, read-out: hGIPR 0.5% hP
[5] = 100% human plasma, read-out: hGIPR 100% hP
[6] = 0.5% human plasma, read-out: hGLP1R 0.5% hP
[7] = 0.5% human plasma, read-out: hNPY2R 0.5% hP
[8] = 100% human plasma, read-out: hNPY2R 100% hP

Substance | EC50 [1, 4] [nM] | EC50 [1, 5] [nM] | EC50 [2, 6] [nM] | EC50 [3, 7] [nM] | EC50 [3, 8] [nM] | EC50 ([2]; 100% human plasma, read-out: hGLP1R 100% hP) [nM]
H-Y[Aib]EGTFTSDYSI[Aib]LEKQAQ[Aib]AFVQWLIK([εLys-γGlu-γGlu-γGlu-γGlu-γGlu-γGlu-C20 diacid])GGPSEGASLRHYYNWLTR[β3hQ]RY-NH2 [Compound 186, Y-Aib-E-G-T-F-T-S-D-Y-S-I-Aib-L-E-K-Q-A-Q-Aib-A-F-V-Q-W-L-I-K(1,3)-G-G-P-S-E-G-A-S-L-R-H-Y-Y-N-W-L-T-R-bHGln-R-Y-NH2.C20DA-gGlu-gGlu-gGlu-gGlu-gGlu-gGlu-eLys(1,2)] | 0.11 | 0.77 | 0.11 | > 99.9 |  | 
H-Y[Aib]EGTFTSDYSI[Aib]LEKQAQ[Aib]AFVEWLIK([AEEA-AEEA-γGlu-γGlu-γGlu-γGlu-γGlu-C20 diacid])GGPSSGASLRHYYNWLTRQRY-NH2 [Compound 229, Y-Aib-E-G-T-F-T-S-D-Y-S-I-Aib-L-E-K-Q-A-Q-Aib-A-F-V-E-W-L-I-K(1,3)-GGPSSGASLRHYYNWLTRQRY-NH2.C20DA-gGlu-gGlu-gGlu-gGlu-gGlu-OEG-OEG(1,2)] | 0.22 | 1.42 | 0.1 | 10.8 | 27.2 | 
H-Y[Aib]EGTFTSDYSI[Aib]LEKQAQ[Aib]AFVEWLIK([εLys-γGlu-γGlu-γGlu-γGlu-γGlu-γGlu-C20 diacid])GGPSSGASLRHYYNWLTRQR[Tle]-NH2 [Compound 191, Y-Aib-E-G-T-F-T-S-D-Y-S-I-Aib-L-E-K-Q-A-Q-Aib-A-F-V-E-W-L-I-K(1,3)-GGPSSGASLRHYYNWLTRQR-Tle-NH2.C20DA-gGlu-gGlu-gGlu-gGlu-gGlu-gGlu-eLys(1,2)] | 0.23 | 2 | 0.17 | > 99.9 | > 999 | 
H-Y[Aib]EGTFTSDYSI[Aib]LEKQAQ[Aib]AFVQWLIK([AEEA-AEEA-γGlu-γGlu-γGlu-γGlu-γGlu-C20 diacid])GGPSEPASLRHYYNWLTRQRY-NH2 [Compound 111, Y-Aib-E-G-T-F-T-S-D-Y-S-I-Aib-L-E-K-Q-A-Q-Aib-A-F-V-Q-W-L-I-K(1,3)-GGPSEPASLRHYYNWLTRQRY-NH2.C20DA-gGlu-gGlu-gGlu-gGlu-gGlu-OEG-OEG(1,2)] | 0.55 |  | 0.12 | 13.4 | 36.8 | 
H-Y[Aib]EGTFTSDYSI[Aib]LEKQAQ[Aib]AFVEWLIK([γGlu-γGlu-γGlu-γGlu-γGlu-γGlu-C20 diacid])GGGSEYVSLRHYYNWLTRQRY-NH2 [Compound 65, Y-Aib-E-G-T-F-T-S-D-Y-S-I-Aib-L-E-K-Q-A-Q-Aib-A-F-V-E-W-L-I-K(1,3)-GGGSEYVSLRHYYNWLTRQRY-NH2.C20DA-gGlu-gGlu-gGlu-gGlu-gGlu-gGlu(1,2)] | 1.03 |  | 2.65 | 11 |  | 
H-Y[Aib]EGTFTSDYSI[Aib]LEKQAQ[Aib]AFVEWLIK([AEEA-AEEA-γGlu-γGlu-γGlu-C18 diacid])GGPESGASLRHYYNWLTRQRY-NH2 [Compound 166, Y-Aib-E-G-T-F-T-S-D-Y-S-I-Aib-L-E-K-Q-A-Q-Aib-A-F-V-E-W-L-I-K(1,3)-GGPESGASLRHYYNWLTRQRY-NH2.C18DA-gGlu-gGlu-gGlu-OEG-OEG(1,2)] | 0.08 | 0.64 | 0.07 | 12.5 |  | 4.24
H-Y[Aib]EGTFTSDYSI[Aib]LEKQAQ[Aib]AFVQWLIK([AEEA-AEEA-γGlu-γGlu-γGlu-γGlu-γGlu-C18 diacid])GGPSEGASLRHYYNWLTRQRY-NH2 [Compound 246, Y-Aib-E-G-T-F-T-S-D-Y-S-I-Aib-L-E-K-Q-A-Q-Aib-A-F-V-Q-W-L-I-K(1,3)-GGPSEGASLRHYYNWLTRQRY-NH2.C18DA-gGlu-gGlu-gGlu-gGlu-gGlu-OEG-OEG(1,2)] | 0.16 | 0.95 | 0.11 | 12.8 | 28.2 | 
H-Y[Aib]EGTFTSDYSI[Aib]LDKQAQ[Aib]AFVEWLIK([εLys-γGlu-γGlu-γGlu-γGlu-γGlu-γGlu-C20 diacid])GGPSSGASLRHYYNWLTRQRY-NH2 [Compound 128, Y-Aib-E-G-T-F-T-S-D-Y-S-I-Aib-L-D-K-Q-A-Q-Aib-A-F-V-E-W-L-I-K(1,3)-GGPSSGASLRHYYNWLTRQRY-NH2.C20DA-gGlu-gGlu-gGlu-gGlu-gGlu-gGlu-eLys(1,2)] | 0.11 |  | 0.4 | 24.8 |  | 
H-Y[Aib]EGTFTSDYSI[Aib]LEKQAQ[Aib]AFVEWLIK([εLys-γGlu-γGlu-γGlu-γGlu-γGlu-γGlu-C20 diacid])GGPSSGASLLHYYNWLTRQRY-NH2 [Compound 210, Y-Aib-E-G-T-F-T-S-D-Y-S-I-Aib-L-E-K-Q-A-Q-Aib-A-F-V-E-W-L-I-K(1,3)-GGPSSGASLLHYYNWLTRQRY-NH2.C20DA-gGlu-gGlu-gGlu-gGlu-gGlu-gGlu-eLys(1,2)] | 0.28 |  | 0.19 | 54.1 |  | 
H-Y[Aib]EGTFTSDYSI[Aib]LEKQAQ[Aib]AFVEWLIK([Glu-Glu-Glu-Glu-C18 diacid])GGPSEGASLRHYYNWLTRQRY-NH2 [Compound 291, Y-Aib-E-G-T-F-T-S-D-Y-S-I-Aib-L-E-K-Q-A-Q-Aib-A-F-V-E-W-L-I-K(1,3)-GGPSEGASLRHYYNWLTRQRY-NH2.C18DA-E-E-E-E(1,2)] | 0.18 | 0.7 | 0.1 | 14.3 |  | 
H-Y[Aib]EGTFTSDYSI[Aib]LEKQAQ[Aib]AFVEWLIK([εLys-γGlu-γGlu-γGlu-γGlu-γGlu-γGlu-C20 diacid])GGPSSGASLRHY[Tle]NWLTRQRY-NH2 [Compound 133, Y-Aib-E-G-T-F-T-S-D-Y-S-I-Aib-L-E-K-Q-A-Q-Aib-A-F-V-E-W-L-I-K(1,3)-G-G-P-S-S-G-A-S-L-R-H-Y-Tle-N-W-L-T-R-Q-R-Y-NH2.C20DA-gGlu-gGlu-gGlu-gGlu-gGlu-gGlu-eLys(1,2)] | 0.48 |  | 0.16 | 14.1 |  | 
H-Y[Aib]EGTFTSDYSI[Aib]LEKQAQ[Aib]AFVEWLIK([εLys-γGlu-γGlu-γGlu-γGlu-γGlu-γGlu-C20 diacid])GGPSEPQSIRHYYNWLTRQRY-NH2 [Compound 48, Y-Aib-E-G-T-F-T-S-D-Y-S-I-Aib-L-E-K-Q-A-Q-Aib-A-F-V-E-W-L-I-K(1,3)-GGPSEPQSIRHYYNWLTRQRY-NH2.C20DA-gGlu-gGlu-gGlu-gGlu-gGlu-gGlu-eLys(1,2)] | 0.07 | 0.68 | 0.07 |  | 35.2 | 
H-Y[Aib]EGTFTSDYSI[Aib]LEKQAQ[Aib]AFVEWLIK([εLys-γGlu-γGlu-γGlu-γGlu-γGlu-γGlu-C20 diacid])GGPSEYVSIRHYYNWLTRQRY-NH2 [Compound 42, Y-Aib-E-G-T-F-T-S-D-Y-S-I-Aib-L-E-K-Q-A-Q-Aib-A-F-V-E-W-L-I-K(1,3)-GGPSEYVSIRHYYNWLTRQRY-NH2.C20DA-gGlu-gGlu-gGlu-gGlu-gGlu-gGlu-eLys(1,2)] | 0.15 |  | 0.36 |  | 19.1 | 
H-Y[Aib]EGTFTSDYSI[Aib]LEKQAQ[Aib]AFVEWLIK([εLys-γGlu-γGlu-γGlu-γGlu-γGlu-γGlu-C20 diacid])GGPSSGASLRHYYNWLTR[β3hQ]RY-NH2 [Compound 208, Y-Aib-E-G-T-F-T-S-D-Y-S-I-Aib-L-E-K-Q-A-Q-Aib-A-F-V-E-W-L-I-K(1,3)-G-G-P-S-S-G-A-S-L-R-H-Y-Y-N-W-L-T-R-bHGln-R-Y-NH2.C20DA-gGlu-gGlu-gGlu-gGlu-gGlu-gGlu-eLys(1,2)] | 0.07 | 0.81 | 0.11 | > 100 | > 1000 | 
